Experimental data published in patent US12570655B2, “Cysteine covalent modifiers of AKT1 and uses thereof” (Terremoto Biosciences, Inc., priority 2023, dated 2026).

Experiments:
Assay type in all cases: cell-based
[1] = tested on: LAPC4 prostate cancer cells; test: Antiproliferative effects in LAPC4 cells (CellTiter Glo); settings: Homo sapiens, LAPC4, 72 h, LAPC4 cells (AKT1 E17K allele), read-out: LAPC4 proliferation IC50
Summary of the method: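 LAPC4 cells were cultured in IMDM with 12% FBS and 1% P/S, seeded at 1,000 cells/well and exposed to compound dilutions in DMSO. After 72 h, intracellular ATP was measured by CellTiter Glo luminescence, and IC50 values came from a log(inhibitor) vs. response Hill fit.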

AKT2 = target: T1, AKT2 (Homo sapiens, UniProt P31751); test: Live cell AKT2 target engagement by NanoBRET competitive probe displacement; settings: HEK293 cells transfected with kinase-NanoLuciferase fusion, 2 h at 37° C.
T1 construct: expressed in transfected cells; host or cells: HEK293
T1 sequence (P31751 whole entry, the tested form may be a part): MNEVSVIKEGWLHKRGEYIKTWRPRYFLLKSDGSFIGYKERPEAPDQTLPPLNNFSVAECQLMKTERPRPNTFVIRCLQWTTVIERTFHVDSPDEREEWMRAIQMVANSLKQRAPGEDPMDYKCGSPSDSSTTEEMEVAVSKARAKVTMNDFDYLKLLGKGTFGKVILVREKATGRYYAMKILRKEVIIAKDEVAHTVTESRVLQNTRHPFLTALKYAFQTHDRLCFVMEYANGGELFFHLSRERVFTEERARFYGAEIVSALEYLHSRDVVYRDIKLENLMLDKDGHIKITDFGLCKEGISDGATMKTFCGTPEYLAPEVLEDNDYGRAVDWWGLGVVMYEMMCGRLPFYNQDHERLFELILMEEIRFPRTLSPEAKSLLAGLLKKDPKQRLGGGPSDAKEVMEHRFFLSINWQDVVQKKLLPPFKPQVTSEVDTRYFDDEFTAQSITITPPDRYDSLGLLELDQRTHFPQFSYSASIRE
Summary of the method: (§1)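 HEK293 cells transiently expressing kinase–NanoLuciferase fusions (overnight transfection) were treated with serial compound dilutions plus fluorescent ATP-competitive tracer at ~EC50 concentration for 2 h at 37 °C. BRET ratio E600/E460 measured after substrate and extracellular luciferase inhibitor addition; IC50 from log(inhibitor)–response Hill fit.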

AKT1 WT = target: T2, AKT1 WT (Homo sapiens, UniProt P31749); test: Live cell AKT1 WT target engagement by NanoBRET competitive probe displacement; settings: HEK293 cells transfected with kinase-NanoLuciferase fusion, 2 h at 37° C.
T2 construct: expressed in transfected cells; host or cells: HEK293
T2 sequence (P31749 whole entry, the tested form may be a part): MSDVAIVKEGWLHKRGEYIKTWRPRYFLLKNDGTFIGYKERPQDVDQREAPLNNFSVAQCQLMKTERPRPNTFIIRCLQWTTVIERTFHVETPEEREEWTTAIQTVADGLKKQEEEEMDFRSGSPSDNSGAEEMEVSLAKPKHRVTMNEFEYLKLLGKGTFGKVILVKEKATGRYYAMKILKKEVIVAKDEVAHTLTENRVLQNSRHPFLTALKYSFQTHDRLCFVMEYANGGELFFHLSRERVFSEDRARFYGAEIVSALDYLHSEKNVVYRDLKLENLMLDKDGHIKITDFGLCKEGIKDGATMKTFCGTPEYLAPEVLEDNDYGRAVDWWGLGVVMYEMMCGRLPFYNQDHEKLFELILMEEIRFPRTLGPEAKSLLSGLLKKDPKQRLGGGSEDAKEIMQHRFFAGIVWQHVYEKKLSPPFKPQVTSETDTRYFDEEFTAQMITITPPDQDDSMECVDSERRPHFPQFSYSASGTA
Summary of the method: as §1

AKT1 E17K = target: T3, AKT1 E17K (Homo sapiens, UniProt P31749, E17K); test: Live cell AKT1 E17K target engagement by NanoBRET competitive probe displacement; settings: HEK293 cells transfected with kinase-NanoLuciferase fusion, 2 h at 37° C.
T3 construct: expressed in transfected cells; host or cells: HEK293
T3 sequence (P31749 whole entry E17K, the tested form may be a part): as the sequence (P31749 whole entry, the tested form may be a part) above, with E17K counted along it
Summary of the method: as §1

IC50 [1] | IC50 (AKT2) | IC50 (AKT1 WT) | IC50 (AKT1 E17K) | SMILES
0.1 µM | 0.198 µM | 0.0183 µM | 0.11 µM | C=CC(=O)N1CCC(N(CC2COC2)[C@H]2CCc3cc(-n4c(-c5cccnc5N)nc5ccc(-n6cccn6)nc54)ccc32)CC1 [Example 161, 1-(4-{[(1S)-5-[2-(2-aminopyridin-3-yl)-5-(pyrazol-1-yl)imidazo[4,5-b]pyridin-3-yl]-2,3-dihydro-1H-inden-1-yl](oxetan-3-ylmethyl)amino}piperidin-1-yl)prop-2-en-1-one]
0.116 µM | 0.257 µM | 0.0219 µM | 0.074 µM | C=CC(=O)N(C)CCCN[C@H]1CCc2cc(-n3c(-c4cccnc4N)nc4ccc(-n5cccn5)nc43)ccc21 [Example 166, (S)-N-(3-((5-(2-(2-aminopyridin-3-yl)-5-(1H-pyrazol-1-yl)-3H-imidazo[4,5-b]pyridin-3-yl)-2,3-dihydro-1H-inden-1-yl)amino)propyl)-N-methylacrylamide]
0.565 µM | 0.115 µM | 0.593 µM | 0.0537 µM | C=CC(=O)N1CCC(c2cn([C@H]3CCc4cc(-n5c(-c6cccnc6N)nc6ccc(-n7cccn7)nc65)ccc43)nn2)CC1 [Example 169, 1-(4-{1-[(1S)-5-[2-(2-aminopyridin-3-yl)-5-(pyrazol-1-yl)imidazo[4,5-b]pyridin-3-yl]-2,3-dihydro-1H-inden-1-yl]-1,2,3-triazol-4-yl}piperidin-1-yl)prop-2-en-1-one]
0.748 µM | 0.324 µM | 1.34 µM | 0.0565 µM | Nc1ncccc1-c1nc2ccc(-n3cccn3)nc2n1-c1ccc2c(c1)CC[C@@H]2NC1CCN(C(=O)C(F)Cl)CC1 (stereo partly drawn) [Example 173, 1-(4-{[(1S)-5-[2-(2-aminopyridin-3-yl)-5-(pyrazol-1-yl)imidazo[4,5-b]pyridin-3-yl]-2,3-dihydro-1H-inden-1-yl]amino}piperidin-1-yl)-2-chloro-2-fluoroethanone]
0.071 µM | 0.0267 µM | 0.0332 µM | 0.0181 µM | C#Cc1cccc(-c2ccc3nc(-c4cccnc4N)n(-c4ccc5c(c4)CC[C@@H]5NC4CCN(C(=O)C=C)CC4)c3n2)c1 [Example 178, 1-(4-{[(1S)-5-[2-(2-aminopyridin-3-yl)-5-(3-ethynylphenyl)imidazo[4,5-b]pyridin-3-yl]-2,3-dihydro-1H-inden-1-yl]amino}piperidin-1-yl)prop-2-en-1-one]
1.6 µM | 0.633 µM | 1.26 µM | 0.0994 µM | C=CC(=O)N1CCC(CN[C@H]2CCc3cc(-n4c(-c5cccnc5N)nc5ccc(-n6cccn6)nc54)ccc32)(OC)CC1 [Example 183, 1-[4-({[(1S)-5-[2-(2-aminopyridin-3-yl)-5-(pyrazol-1-yl)imidazo[4,5-b]pyridin-3-yl]-2,3-dihydro-1H-inden-1-yl]amino}methyl)-4-methoxypiperidin-1-yl]prop-2-en-1-one]
0.184 µM | 0.0272 µM | 0.104 µM | 0.0178 µM | C=CC(=O)N1CCC(F)(CN[C@H]2CCc3cc(-n4c(-c5cccnc5N)nc5ccc(-n6cccn6)nc54)ccc32)CC1 [Example 184, (S)-1-(4-(((5-(2-(2-aminopyridin-3-yl)-5-(1H-pyrazol-1-yl)-3H-imidazo[4,5-b]pyridin-3-yl)-2,3-dihydro-1H-inden-1-yl)amino)methyl)-4-fluoropiperidin-1-yl)prop-2-en-1-one]
4.13 µM | 0.912 µM | 2.17 µM | 0.0532 µM | CC(C)=CC(=O)N1CCC(N[C@H]2CCc3cc(-n4c(-c5cccnc5N)nc5ccc(-n6cccn6)nc54)ccc32)CC1 [Example 185, 1-(4-{[(1S)-5-[2-(2-aminopyridin-3-yl)-5-(pyrazol-1-yl)imidazo[4,5-b]pyridin-3-yl]-2,3-dihydro-1H-inden-1-yl]amino}piperidin-1-yl)-3-methylbut-2-en-1-one]
0.801 µM | 0.954 µM | 0.877 µM | 0.0306 µM | C=CC(=O)N1CCC(N[C@H]2CCc3cc(-n4c(-c5cccnc5N)nc5ccc(N6CCC(F)(F)CC6)nc54)ccc32)CC1 [Example 186, 1-(4-{[(1S)-5-[2-(2-aminopyridin-3-yl)-5-(4,4-difluoropiperidin-1-yl)imidazo[4,5-b]pyridin-3-yl]-2,3-dihydro-1H-inden-1-yl]amino}piperidin-1-yl)prop-2-en-1-one]
0.0644 µM | 0.0287 µM | 0.0464 µM | 0.0073 µM | C=CC(=O)N1CCC(N[C@H]2CCc3cc(-n4c(-c5cccnc5N)nc5ccc(-c6cnn(C(F)F)c6)nc54)ccc32)CC1 [Example 187, 1-(4-{[(1S)-5-[2-(2-aminopyridin-3-yl)-5-[1-(difluoromethyl)pyrazol-4-yl]imidazo[4,5-b]pyridin-3-yl]-2,3-dihydro-1H-inden-1-yl]amino}piperidin-1-yl)prop-2-en-1-one]
0.31 µM | 0.142 µM | 0.446 µM | 0.0138 µM | C=CC(=O)N1CCC(N[C@H]2CCc3cc(-n4c(-c5cccnc5N)nc5ccc(N6CC[C@@H](F)C6)nc54)ccc32)CC1 [Example 194, 1-(4-{[(1S)-5-[2-(2-aminopyridin-3-yl)-5-[(3R)-3-fluoropyrrolidin-1-yl]imidazo[4,5-b]pyridin-3-yl]-2,3-dihydro-1H-inden-1-yl]amino}piperidin-1-yl)prop-2-en-1-one]
0.319 µM | 0.0808 µM | 0.415 µM | 0.00745 µM | C=CC(=O)N1CCC(N[C@H]2CCc3cc(-n4c(-c5cccnc5N)nc5ccc(C6CCC6)nc54)ccc32)CC1 [Example 195, 1-(4-{[(1S)-5-[2-(2-aminopyridin-3-yl)-5-cyclobutylimidazo[4,5-b]pyridin-3-yl]-2,3-dihydro-1H-inden-1-yl]amino}piperidin-1-yl)prop-2-en-1-one]
0.469 µM | 0.0286 µM | 0.121 µM | 0.0189 µM | Nc1ncccc1-c1nc2ccc(-n3cccn3)nc2n1-c1ccc2c(c1)CC[C@@H]2NC1CCN(C(=O)CCl)CC1 [Example 197, 1-(4-{[(1S)-5-[2-(2-aminopyridin-3-yl)-5-(pyrazol-1-yl)imidazo[4,5-b]pyridin-3-yl]-2,3-dihydro-1H-inden-1-yl]amino}piperidin-1-yl)-2-chloroethanone]
0.461 µM | 0.027 µM | 0.835 µM | 0.016 µM | C=CC(=O)N1CCC(N[C@H]2CCc3cc(-n4c(-c5cccnc5N)nc5ccc(OC6CC6)nc54)ccc32)CC1 [Example 198, 1-(4-{[(1S)-5-[2-(2-aminopyridin-3-yl)-5-cyclopropoxyimidazo[4,5-b]pyridin-3-yl]-2,3-dihydro-1H-inden-1-yl]amino}piperidin-1-yl)prop-2-en-1-one]
2.38 µM | 0.802 µM | 0.603 µM | 0.0674 µM | C=CC(=O)N1CCC(N[C@H]2CCc3cc(-n4c(-c5cccnc5N)nc5cc(C6CC6)cnc54)ccc32)CC1 [Example 199, 1-(4-{[(1S)-5-[2-(2-aminopyridin-3-yl)-6-cyclopropylimidazo[4,5-b]pyridin-3-yl]-2,3-dihydro-1H-inden-1-yl]amino}piperidin-1-yl)prop-2-en-1-one]
1.19 µM | 0.835 µM | 1.74 µM | 0.112 µM | C=CC(=O)N1CCC(N[C@H]2CCc3cc(-n4c(-c5cccnc5N)nc5ccc(N6CCCOCC6)nc54)ccc32)CC1 [Example 205, 1-(4-{[(1S)-5-[2-(2-aminopyridin-3-yl)-5-(1,4-oxazepan-4-yl)imidazo[4,5-b]pyridin-3-yl]-2,3-dihydro-1H-inden-1-yl]amino}piperidin-1-yl)prop-2-en-1-one]
0.0627 µM | 0.0248 µM | 0.0805 µM | 0.00765 µM | C=CC(=O)N1CCC(N[C@H]2CCc3cc(-n4c(-c5cccnc5N)nc5ccc(-n6ccc(OC)n6)nc54)ccc32)CC1 [Example 206, 1-(4-{[(1S)-5-[2-(2-aminopyridin-3-yl)-5-(3-methoxypyrazol-1-yl)imidazo[4,5-b]pyridin-3-yl]-2,3-dihydro-1H-inden-1-yl]amino}piperidin-1-yl)prop-2-en-1-one]
0.114 µM | 0.0352 µM | 0.0488 µM | 0.00707 µM | C=CC(=O)N1CCC(N[C@H]2CCc3cc(-n4c(-c5cccnc5N)nc5ccc(-c6ccccn6)nc54)ccc32)CC1 [Example 207, (S)-1-(4-((5-(2-(2-aminopyridin-3-yl)-5-(pyridin-2-yl)-3H-imidazo[4,5-b]pyridin-3-yl)-2,3-dihydro-1H-inden-1-yl)amino)piperidin-1-yl)prop-2-en-1-one]
0.0698 µM | 0.0261 µM | 0.0778 µM | 0.00574 µM | C=CC(=O)N1CCC(N[C@H]2CCc3cc(-n4c(-c5cccnc5N)nc5ccc(-n6ccc(C7CC7)n6)nc54)ccc32)CC1 [Example 208, (S)-1-(4-((5-(2-(2-aminopyridin-3-yl)-5-(3-cyclopropyl-1H-pyrazol-1-yl)-3H-imidazo[4,5-b]pyridin-3-yl)-2,3-dihydro-1H-inden-1-yl)amino)piperidin-1-yl)prop-2-en-1-one]
3.96 µM | 0.352 µM | 2.35 µM | 0.14 µM | C=CC(=O)N1CCC(N[C@H]2CCc3cc(-n4c(-c5cccnc5N)nc5cc(C(F)(F)F)cnc54)ccc32)CC1 [Example 216, 1-(4-{[(1S)-5-[2-(2-aminopyridin-3-yl)-6-(trifluoromethyl)imidazo[4,5-b]pyridin-3-yl]-2,3-dihydro-1H-inden-1-yl]amino}piperidin-1-yl)prop-2-en-1-one]
